Reference: patent US20170224688A1, “Methods of Using BTK Inhibitors to Treat Dermatoses” (Acerta Pharma B.V., priority 2016, published 2017)

What was measured:
psoriasis [1] = assay: Treatment history of Subject 1's psoriasis; type: in vivo, human; settings: Subject 1, before enrolling in the clinical study
Procedure: (§1) Subject 1 in the clinical study of Example 12 is a CLL patient with a history of psoriatic skin disease. Subject 1 had psoriasis, without involvement of joints, and with diffuse plaques on their trunk and extremities. Their psoriasis was severe, with ˜30% body surface area (BSA) affected (>10% BSA is considered severe disease). They were treated over time with several systemic therapies including etanercept, adalimumab, and a 2010 clinical study of an experimental agent.

psoriasis [2] = settings: patients treated for malignancies; cited from earlier work
[3] = test system: signals through the B cell receptor; assay: In vitro potency in whole blood: CD69 on CD19+ B cells after anti-human IgD; type: cell-based; settings: blood of four healthy donors, 2 h with compound, anti-human IgD 10 μg/mL 18 h, flow cytometry, read-out: EC50, inhibition of CD69 on gated CD19+ B cells in whole blood
Procedure: Blood from four healthy donors was incubated for 2 hours with the compounds shown over a concentration range, and then stimulated with anti-human IgD [10 μg/mL] for 18 hours. The mean fluorescent intensity (MFI) of CD69 (and CD86, data not shown) on gated CD19+ B cells was measured by flow cytometry.

hematologic malignancies = settings: cited from earlier work
[4] = test system: BCR activation markers CD69 and CD86; assay: In vivo potency: BCR activation markers after oral gavage; settings: mice gavaged, sacrificed 3 h post-dose, BCR stimulated with IgM, flow cytometry (FIG. 1)
Procedure: Mice were gavaged at increasing drug concentration and sacrificed at one time point (3 h post-dose). BCR is stimulated with IgM and the expression of activation markers CD69 and CD86 are monitored by flow cytometry to determine EC50's.
CD86 and CD69 are cell surface proteins that are BCR activation markers. […] BCR was stimulated with IgM and the expression of activation marker CD69 and CD86 are monitored by flow cytometry and to determine EC50 values.

[5] = Study of respiratory function (GLP safety pharmacology); settings: rats, doses through 300 mg/kg (highest dose level)
EGFR = EGFR (Homo sapiens, UniProt P00533); assay: EGF-induced EGFR phosphorylation in A431 cells (phosphoflow cytometry); settings: at 10 μM, A431 human epidermoid cancer cell line
Chain of EGFR (P00533 25-1210): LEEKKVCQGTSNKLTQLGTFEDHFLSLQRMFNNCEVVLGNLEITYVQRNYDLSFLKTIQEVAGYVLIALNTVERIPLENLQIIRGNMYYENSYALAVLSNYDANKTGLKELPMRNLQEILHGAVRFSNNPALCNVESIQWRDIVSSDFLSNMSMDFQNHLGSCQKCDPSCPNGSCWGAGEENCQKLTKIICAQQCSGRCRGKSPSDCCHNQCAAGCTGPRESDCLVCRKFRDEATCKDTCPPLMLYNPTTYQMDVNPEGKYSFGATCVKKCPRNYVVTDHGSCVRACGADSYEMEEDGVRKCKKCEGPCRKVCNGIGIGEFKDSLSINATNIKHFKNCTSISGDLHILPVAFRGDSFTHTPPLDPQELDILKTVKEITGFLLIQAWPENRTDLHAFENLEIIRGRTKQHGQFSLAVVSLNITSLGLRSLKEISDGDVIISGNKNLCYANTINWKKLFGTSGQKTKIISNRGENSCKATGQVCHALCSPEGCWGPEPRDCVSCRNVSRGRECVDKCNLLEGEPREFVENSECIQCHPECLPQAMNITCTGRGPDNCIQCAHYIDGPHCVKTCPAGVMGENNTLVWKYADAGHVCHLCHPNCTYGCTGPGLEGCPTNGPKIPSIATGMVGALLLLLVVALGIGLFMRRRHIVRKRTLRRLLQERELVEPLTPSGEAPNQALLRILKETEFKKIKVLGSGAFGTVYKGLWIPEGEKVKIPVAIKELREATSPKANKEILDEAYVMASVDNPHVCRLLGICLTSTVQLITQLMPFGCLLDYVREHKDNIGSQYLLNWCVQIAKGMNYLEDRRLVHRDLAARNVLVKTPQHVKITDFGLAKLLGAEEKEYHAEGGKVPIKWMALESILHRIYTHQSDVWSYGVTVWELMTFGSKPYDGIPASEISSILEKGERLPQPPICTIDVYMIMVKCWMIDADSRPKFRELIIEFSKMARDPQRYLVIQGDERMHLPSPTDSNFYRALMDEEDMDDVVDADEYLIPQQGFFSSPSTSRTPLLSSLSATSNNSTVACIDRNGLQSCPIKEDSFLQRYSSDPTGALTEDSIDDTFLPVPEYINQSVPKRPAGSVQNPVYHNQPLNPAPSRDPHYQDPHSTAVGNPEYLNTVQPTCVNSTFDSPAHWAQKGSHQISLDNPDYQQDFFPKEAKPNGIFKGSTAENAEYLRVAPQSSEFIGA

psoriasis [6] = assay: Clinical observation of psoriasis in CLL patients on study drug; type: in vivo, human
From the text: (§2) Clinical studies have shown that targeting the BCR signaling pathway by inhibiting BTK produces significant clinical benefit in patients with various types of leukemias and lymphomas.
The secondary objective of the clinical study is to evaluate tumor responses in patients treated with Formula (II).
The study scheme is a sequential cohort escalation. Each cohort consists of six subjects. The sample size of the study is 24 to 36 subjects, depending on dose escalation into subsequent cohorts. […] The dose level for Cohort 6 will be determined based on the safety and efficacy of Cohorts 1 to 5, and will not exceed 900 mg/day. Escalation will end with either the MTD cohort or three levels above full BTK occupancy, whichever is observed first. An additional arm of the study will explore 100 mg BID dosing.
The color of the capsules is Swedish orange. The route of administration is oral (per os, or PO). The dose regimen is once daily or twice daily, as defined by the cohort, on an empty stomach (defined as no food 2 hours before and 30 minutes after dosing).
as §1
When treatment with Formula (2) was initiated, Subject 1's skin symptoms started to improve rapidly. […] By Cycle 10 (10 months on Formula (2)), their skin was clear. […] The only remainder was some scaling in the same areas that were once affected by psoriasis lesions.
Subject 2 was enrolled in a clinical study similar to that described above, and also experienced resolution of moderate-to-severe plaque psoriasis (a “florid” case) while on treatment with Formula (2). The subject's disease history included extensive body surface area involvement, mainly on the back and thighs, for most of their adult life.

[7] = Preliminary evaluation of metabolism in plasma, bile, and urine; type: in vivo; settings: rats, dogs, monkeys; preliminary evaluations
CYP enzymes = assay: Nonclinical CYP interaction studies; type: in vitro ADME
hepatocytes = assay: In vitro metabolism in hepatocytes with 14C-labeled drug; type: in vitro ADME, mouse, rat, dog, rabbit, monkey, and human
CYP3A4 = CYP3A4 (Homo sapiens, UniProt P08684); assay: Loss of parent drug as catalyzed by CYPs; type: in vitro ADME; settings: in vitro
Chain of CYP3A4 (P08684 whole entry, species assumed): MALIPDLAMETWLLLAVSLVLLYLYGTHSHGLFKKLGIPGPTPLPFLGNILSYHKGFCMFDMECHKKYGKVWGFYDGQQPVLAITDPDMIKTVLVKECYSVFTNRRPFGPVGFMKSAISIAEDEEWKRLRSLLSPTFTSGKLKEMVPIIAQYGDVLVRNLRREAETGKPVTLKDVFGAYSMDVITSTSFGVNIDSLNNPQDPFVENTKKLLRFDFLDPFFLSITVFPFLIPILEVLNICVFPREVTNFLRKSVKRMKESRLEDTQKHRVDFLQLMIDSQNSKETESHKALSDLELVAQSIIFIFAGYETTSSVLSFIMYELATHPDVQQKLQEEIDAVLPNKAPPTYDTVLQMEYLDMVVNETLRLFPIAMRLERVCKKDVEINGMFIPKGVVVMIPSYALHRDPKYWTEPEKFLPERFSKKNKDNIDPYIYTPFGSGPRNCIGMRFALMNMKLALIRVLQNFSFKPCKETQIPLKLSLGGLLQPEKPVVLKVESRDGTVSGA

[8] = Oral bioavailability (preclinical characteristics); settings: in vivo
From the text: as §2

[9] = Glutathione binding and depletion in vitro; type: in vitro ADME

etanercept
response of psoriasis to earlier therapy (psoriasis [1]): initially responded

Cc1nc(Nc2ncc(C(=O)Nc3c(C)cccc3Cl)s2)cc(N2CCN(CCO)CC2)n1 [Dasatinib]
effect on psoriasis / skin (psoriasis [2]): has not been reported to improve psoriasis

Cc1ccc(C(=O)Nc2ccc(CN3CCN(C)CC3)c(C(F)(F)F)c2)cc1C#Cc1cnc2cccnn12 [Ponatinib]
effect on psoriasis / skin (psoriasis [2]): causes an extreme degree of skin drying and induces an almost psoriasis-like disease

Cc1ccc(NC(=O)c2ccc(CN3CCN(C)CC3)cc2)cc1Nc1nccc(-c2cccnc2)n1 [imatinib]
effect on psoriasis / skin (psoriasis [2]): may cause worsening of psoriasis

C=CC(=O)Nc1cccc(Nc2nc(Nc3ccc(OCCOC)cc3)ncc2F)c1 [CC-292, N-(3-((5-fluoro-2-((4-(2-methoxyethoxy)phenyl)amino)pyrimidin-4-yl)amino)phenyl)acrylamide]
EC50 [3]: 121 nM

C=CC(=O)N1CCC[C@@H](n2nc(-c3ccc(Oc4ccccc4)cc3)c3c(N)ncnc32)C1 [Ibrutinib, 1-[(3R)-3-[4-amino-3-(4-phenoxyphenyl)-1H-pyrazolo[3,4-d]pyrimidin-1-yl]piperidin-1-yl]prop-2-en-1-one]
EC50 [3]: 6.1 nM
antitumor activity (hematologic malignancies; subjects with heavily pretreated non-Hodgkin lymphoma): substantial antitumor activity
maximum tolerated dose (MTD) (hematologic malignancies; within the tested dose range (through 840 mg)): No maximum tolerated dose (MTD) was apparent

CC#CC(=O)N1CCC[C@H]1c1nc(-c2ccc(C(=O)Nc3ccccn3)cc2)c2c(N)nccn12 [Formula (II), (S)-4-(8-amino-3-(1-(but-2-ynoyl)pyrrolidin-2-yl)imidazo[1,5-a]pyrazin-1-yl)-N-(pyridin-2-yl)benzamide]
EC50 [3]: 8.2 nM
in vivo potency at inhibiting expression of activation markers CD69 and CD86 [4]: more potent at inhibiting expression of activation makers than ibrutinib
respiratory function [5]: no treatment-related adverse effects
inhibition of in vitro EGFR phosphorylation (EGFR): no inhibition
psoriasis skin symptoms, first month of therapy (psoriasis [6]; Subject 1, CLL patient with severe psoriasis (~30% BSA), oral): some improvement
psoriasis, first 6 months of treatment (psoriasis [6]; Subject 1, oral): mostly resolved
skin status by Cycle 10 (10 months) (psoriasis [6]; Subject 1, oral): clear
moderate-to-severe plaque psoriasis after start of treatment (psoriasis [6]; Subject 2, similar clinical study): cleared quickly
metabolic processes in plasma, bile, and urine [7]: oxidation, glutathione binding, and hydrolysis
drug-drug interaction potential through CYP enzymes (CYP enzymes): very unlikely to cause clinical drug-drug interactions
unique human metabolite (hepatocytes; hepatocytes of six species): No unique human metabolite was identified
metabolites in hepatocytes (hepatocytes; mouse, rat, dog, rabbit, monkey, human hepatocytes, 14C-labeled drug): two mono-oxidized metabolites and a glutathione conjugate
metabolizing CYP (loss of parent drug) (CYP3A4): metabolized by CYP3A4
oral bioavailability [8]: significant oral bioavailability
glutathione binding and depletion [9]: binds to glutathione but does not deplete glutathione
